Experiments:
FM3A [1] = experiment: Cytotoxicity against mouse FM3A cell line; format: functional, cell-based
FM3A [2] = experiment: Selectivity ratio of EC50s against Plasmodium falciparum FCR3 to mice (Mus musculus) FM3A cells; format: functional
Plasmodium falciparum = experiment: Antimalarial activity against chloroquine-sensitive Plasmodium falciparum FCR3; format: functional, organism-based

Structure (SMILES)	EC50 (FM3A [1])	Ratio EC50 (FM3A [2])	EC50 (Plasmodium falciparum)
CCCCCC[n+]1ccc(C(=O)NCCCCCCNC(=O)c2cc[n+](CCCCCC)cc2)cc1.[Br-].[Br-]	> 17300 nM	>333	52 nM
CCCCCCCCCC[n+]1ccc(C(=O)NCCCCCCNC(=O)c2cc[n+](CCCCCCCCCC)cc2)cc1.[Br-].[Br-]	450 nM	11	40 nM
C=C[C@H]1CN2CC[C@H]1C[C@H]2[C@H](O)c1ccnc2ccc(OC)cc12 [QUININE]		910	
CCN(CC)CCCC(C)Nc1ccnc2cc(Cl)ccc12 (centres undefined) [CHLOROQUINE]		1800	
CCCCCCCC[n+]1ccc(C(=O)NCCCCCCNC(=O)c2cc[n+](CCCCCCCC)cc2)cc1.[Br-].[Br-]	5800 nM	580	10 nM
CCCCCCCCCCCCCCCC[n+]1ccc(C(=O)NCCCCCCNC(=O)c2cc[n+](CCCCCCCCCCCCCCCC)cc2)cc1	2200 nM		3500 nM
CCCCCCCCCCCC[n+]1ccc(C(=O)NCCCCCCNC(=O)c2cc[n+](CCCCCCCCCCCC)cc2)cc1.[Br-].[Br-]	420 nM	3	130 nM
CCCCCCCCCCCCCC[n+]1ccc(C(=O)NCCCCCCNC(=O)c2cc[n+](CCCCCCCCCCCCCC)cc2)cc1.[Br-].[Br-]	2800 nM	3	1100 nM

Source: ChEMBL document CHEMBL1147011, “Antimalarial effect of bis-pyridinium salts, N,N'-hexamethylenebis(4-carbamoyl-1-alkylpyridinium bromide)” (Bioorg Med Chem Lett, 2006)
